# Measured values taken from patent US9938245B2 (THE TRUSTEES OF COLUMBIA UNIVERSITY IN THE CITY OF NEW YORK, priority 2014, dated 2018).
# “Also recorded” adds a separate entry of the source.
# Columns and labels:
# BJeLR = assay: Concentration-dependent growth inhibition (alamar blue), isogenic BJ cell lines; assay type: cell-based, human; conditions: for IC50: Homo sapiens, BJeLR, 48 h, 2 days, alamar blue
# HT1080 = assay: Concentration-dependent growth inhibition (alamar blue), HT1080; assay type: cell-based, human; conditions: Homo sapiens, HT-1080, 48 h, 2 days
# Protocol: Assay plates were prepared by seeding either BJ-derived cell lines or HT-1080 cells at 1,500 cells per well concentration in 36 μL growth medium. Cells in the assay plates were treated with compounds by transferring 4 μL volume from the compound plate. The final concentration of compound was typically 30 μM to 0.9 nM in this 16-point, 2-fold dilution series. Assay plates were returned to the culture incubator and maintained for 2 days before adding alamar blue. […] Plates were incubated further for 16 hours to allow reduction of alamar blue, which results in the generation of red fluorescence. The fluorescence intensity was determined using a Victor 3 plate reader (Perkin Elmer) with a 535 nm excitation filter and a 590 nm emission filter.
# Percent growth inhibition (% GI) was calculated from the following formula using the alamar blue fluorescence intensity values. % GI=100*(1−(X−N)/(P−N)) X, cells treated with lethal compound; N, no cells—growth media only; P, no lethal compound—cells only.
# The concentration-dependent curves were generated using Prism software. Percent growth inhibition, measured using alamar blue is shown. Error bars indicate one standard deviation of triplicate data.
# The results are shown in FIG. 17 and in Table 7 below.
# [1] = Compound half-life in liver microsomes; conditions: for half-life at 0.5 μM: mouse, liver microsomes, pH 7.4; for metabolic stability (in words): mouse liver microsomes
# system xc− = target: T1, system xc− (Homo sapiens, UniProt Q9UPY5); assay: Glutamate release assay (system xc− activity); conditions: read-out: IC50 glutamate release; CCF-STTG1 human astrocytoma cells, 2 hour incubation
# T1 sequence (Q9UPY5 1-501): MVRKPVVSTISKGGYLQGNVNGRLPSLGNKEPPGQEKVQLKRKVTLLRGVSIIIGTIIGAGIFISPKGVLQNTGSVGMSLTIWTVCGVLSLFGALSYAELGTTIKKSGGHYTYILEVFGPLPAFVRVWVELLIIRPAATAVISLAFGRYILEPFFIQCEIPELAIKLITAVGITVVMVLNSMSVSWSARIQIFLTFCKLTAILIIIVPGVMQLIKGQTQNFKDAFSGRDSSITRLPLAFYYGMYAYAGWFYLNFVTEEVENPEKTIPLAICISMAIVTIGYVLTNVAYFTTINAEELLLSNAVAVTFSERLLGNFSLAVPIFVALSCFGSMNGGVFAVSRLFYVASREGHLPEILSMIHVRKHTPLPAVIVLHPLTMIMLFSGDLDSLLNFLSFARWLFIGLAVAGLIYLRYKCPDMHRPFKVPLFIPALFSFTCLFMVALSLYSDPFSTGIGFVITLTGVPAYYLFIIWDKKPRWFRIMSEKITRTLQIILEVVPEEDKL
# T1 sequence (P08195 1-529 partner): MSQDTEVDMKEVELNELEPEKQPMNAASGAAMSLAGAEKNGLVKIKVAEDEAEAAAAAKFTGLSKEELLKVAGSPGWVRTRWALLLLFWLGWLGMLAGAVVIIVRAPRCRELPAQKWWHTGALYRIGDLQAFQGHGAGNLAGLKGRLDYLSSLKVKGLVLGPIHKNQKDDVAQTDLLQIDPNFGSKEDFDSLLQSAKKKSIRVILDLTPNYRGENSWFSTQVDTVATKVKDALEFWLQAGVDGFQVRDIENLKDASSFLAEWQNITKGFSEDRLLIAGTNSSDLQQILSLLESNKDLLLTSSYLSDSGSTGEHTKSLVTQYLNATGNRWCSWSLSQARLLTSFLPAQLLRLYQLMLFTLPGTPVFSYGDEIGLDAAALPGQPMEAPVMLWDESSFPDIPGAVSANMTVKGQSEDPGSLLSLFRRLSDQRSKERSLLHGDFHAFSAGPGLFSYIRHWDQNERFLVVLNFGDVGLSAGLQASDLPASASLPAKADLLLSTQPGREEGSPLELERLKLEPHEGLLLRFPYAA
# [2] = test system: BJeH, BJeHLT, BJeLR, and DRD; assay: RSL testing in 4 BJ-derived cell lines; assay type: cell-based, human
# [3] = test system: siGPX4-induced cell death; assay: Suppression of siGPX4-induced cell death by ferroptosis inhibitors; assay type: cell-based; conditions: 10 μM U0126, 100 μM Vit. E, 100 μM DFOM, 50 μM ZIL
# [4] = test system: HT-1080 cells, U-2 OS cells; assay: Cell viability (alamar blue, 24 hours) with modulators of erastin lethality; assay type: cell-based, human; conditions: HT-1080 or U-2 OS cells
# [5] = Pharmacokinetic profile in mice; parameters: species or system mice (C57BL/6); conditions: in vivo
# [6] = test system: xenograft tumors generated from BJeLR cells; assay type: in vivo; conditions: for overt toxicity (body weight): mouse, in vivo
# From the text: . To test our hypothesis that IKE represented a candidate of choice for in vivo studies, we treated xenograft tumors generated from BJeLR cells in nude mice and with IKE compared to vehicle or doxorubicin treatments (as a positive growth suppression control). […] To confirm that growth suppression caused by IKE was due to ferroptotic cell death, we looked at levels of expression of PTGS2, a gene expression marker of ferroptosis. […]
# HT-1080 cells = assay: Cell death rescue by ALOX inhibitors and COX inhibitor; assay type: cell-based, human; conditions: inhibitor concentrations of Table 2
# cellular GSH = assay: GSH depletion assay; assay type: cell-based; conditions: BJeLR cells, lethal RSL3 dose
# GFP-ALOX5 = GFP-ALOX5 translocation assay; assay type: cell-based, human
# lipid peroxides = assay: Lipid peroxide detection using BODIPY-C11; assay type: cell-based; conditions: BJeLR and other BJ-derived cells
compound,measurement,setting,value
"CC(C)Oc1ccc(C=O)cc1-n1c(CN2CCN(C(=O)COc3ccc(Cl)cc3)CC2)nc2ccccc2c1=O [AE, aldehyde erastin]",IC50,BJeLR,8 nM
same,IC50,HT1080,39 nM
same,half-life at 0.5 μM,[1],< 5 min
same,IC50,system xc−,60 nM
C=CCN1CCN(CC(=O)c2ccc(OC(C)C)c(-n3c(CN4CCN(C(=O)COc5ccc(Cl)cc5)CC4)nc4ccccc4c3=O)c2)CC1 [APKE],Selectivity (IC50BJeH/IC50BJeLR),BJeLR,1.5
same,IC50,BJeLR,195 nM
same,metabolic stability (in words),[1],medium to poor metabolic stability
same,half-life at 0.5 μM,[1],4.2 min
same,IC50,system xc−,10 nM
"CCCCS(=N)(=O)CCC(N)C(=O)O (stereo not shown) [BSO, Buthioninesulfoximine]",RSL phenotype (selective lethality in oncogenic-RAS cells),[2],RSL phenotype was observed; also recorded: consistently showed an RSL phenotype
"N#CC(=C(/N)Sc1ccccc1N)/C(C#N)=C(\N)Sc1ccccc1N [Compound U0126, U0126]",rescue of siGPX4-induced cell death,[3],rescued
CC(C)Oc1ccc(C(=O)CF)cc1-n1c(CN2CCN(C(=O)COc3ccc(Cl)cc3)CC2)nc2ccccc2c1=O [FKE],IC50,HT1080,61 nM
same,metabolic stability (in words),[1],medium to poor metabolic stability
same,half-life at 0.5 μM,[1],4.7 min
same,IC50,system xc−,40 nM
"N[C@@H](CCC(=O)N[C@@H](CS)C(=O)NCC(=O)O)C(=O)O [GSH, reduced glutathione]",effect on erastin-induced cell death,[4],rescued cells from erastin lethality
"CC(C)Oc1ccc(C(=O)Cn2ccnc2)cc1-n1c(CN2CCN(C(=O)COc3ccc(Cl)cc3)CC2)nc2ccccc2c1=O [IKE, imidazole ketone erastin]",Selectivity (IC50BJeH/IC50BJeLR),BJeLR,42
same,IC50,BJeLR,3 nM
same,IC50,HT1080,314 nM
same,bioavailability,"[5]; mouse, 5 mg/kg IKE, single IV bolus or single oral gavage, C57BL/6 mice",2.49%
same,"tumor growth, IKE compared to doxorubicin treatment",[6]; 8 day study,no significant difference
same,overt toxicity (body weight),[6],No overt toxicity was observed
same,expression of PTGS2 relative to doxorubicin or vehicle-treated mice,"[6]; qPCR, xenograft",three-fold average increase
same,tumor size compared to vehicle-treated,"[6]; seven once-daily doses of IKE 50 mg/kg I.P., 8 day study",about one third of the size of vehicle-treated tumors
same,metabolic stability (in words),[1],exceptionally high metabolic stability
same,IC50,system xc−,30 nM
COc1ccc2c(c1)c(CC(=O)O)c(C)n2C(=O)c1ccc(Cl)cc1 [Indomethacin],suppression of erastin-induced cell death,HT-1080 cells,only minimally effective in suppressing erastin lethality
CC(=O)c1ccc(OC(C)C)c(-n2c(CN3CCN(C(=O)COc4ccc(Cl)cc4)CC3)nc3ccccc3c2=O)c1 [KE],IC50,HT1080,59 nM
same,half-life at 0.5 μM,[1],3.8 min
same,IC50,system xc−,30 nM
CC(C)Oc1ccc(C(=O)CN2CCOCC2)cc1-n1c(CN2CCN(C(=O)COc3ccc(Cl)cc3)CC2)nc2ccccc2c1=O [MKE],Selectivity (IC50BJeH/IC50BJeLR),BJeLR,5
same,IC50,BJeLR,427 nM
same,metabolic stability (in words),[1],medium to poor metabolic stability
same,half-life at 0.5 μM,[1],23.4 min
same,IC50,system xc−,10 nM
CC(C)Oc1ccc(C(=O)CN2CCN(C)CC2)cc1-n1c(CN2CCN(C(=O)COc3ccc(Cl)cc3)CC2)nc2ccccc2c1=O [MPKE],Selectivity (IC50BJeH/IC50BJeLR),BJeLR,1.9
same,IC50,BJeLR,474 nM
same,IC50,system xc−,300 nM
CC(=O)N[C@@H](CS)C(=O)O [N-acetyl-cysteine],effect on erastin-induced cell death,[4],rescued cells from erastin lethality
"CC(C)Oc1ccc(C(=O)CN2CCNCC2)cc1-n1c(CN2CCN(C(=O)COc3ccc(Cl)cc3)CC2)nc2ccccc2c1=O [PKE, piperazine ketone erastin]",IC50,HT1080,550 nM
same,bioavailability,"[5]; C57BL/6, mouse, oral, 20 mg/kg",0.75%
same,metabolic stability (in words),[1],exceptionally high metabolic stability
same,half-life at 0.5 μM,[1],> 90 min
same,IC50,system xc−,100 nM
COc1ccc(CN2CCN(CC(=O)c3ccc(OC(C)C)c(-n4c(CN5CCN(C(=O)COc6ccc(Cl)cc6)CC5)nc5ccccc5c4=O)c3)CC2)cc1 [PMB-PKE],Selectivity (IC50BJeH/IC50BJeLR),BJeLR,13
same,IC50,BJeLR,13 nM
same,metabolic stability (in words),[1],medium to poor metabolic stability
same,half-life at 0.5 μM,[1],3.4 min
same,IC50,system xc−,4 nM
COC(=O)c1ccc([C@@H]2c3[nH]c4ccccc4c3C[C@@H](C(=O)OC)N2C(=O)CCl)cc1 [RSL3],cellular GSH level,cellular GSH,remained unaffected
same,RSL phenotype (selective lethality in oncogenic-RAS cells),[2],exhibited selective lethality in BJeLR cells
same,translocation of GFP-ALOX5 to the nuclear membrane,GFP-ALOX5,caused GFP-ALOX5 translocation to the nuclear membrane in BJeLR cells
same,generation of lipid peroxides (BODIPY-C11),lipid peroxides,generation of lipid peroxides
CC(C)Oc1ccc(C(=O)C(F)(F)F)cc1-n1c(CN2CCN(C(=O)COc3ccc(Cl)cc3)CC2)nc2ccccc2c1=O [TFKE],IC50,HT1080,178 nM
same,IC50,system xc−,20 nM
"CC(c1cc2ccccc2s1)N(O)C(N)=O (stereo not shown) [ZIL, Zileuton]",rescue of siGPX4-induced cell death,[3],rescued
"C[C@H]1O[C@@H](O[C@H]2[C@@H](O)C[C@H](O[C@H]3[C@@H](O)C[C@H](O[C@H]4CC[C@@]5(C)[C@H](CC[C@@H]6[C@@H]5C[C@@H](O)[C@]5(C)[C@@H](C7=CC(=O)OC7)CC[C@]65O)C4)O[C@@H]3C)O[C@@H]2C)C[C@H](O)[C@@H]1O [digoxin, Digoxin]",translocation of GFP-ALOX5 to the nuclear membrane,GFP-ALOX5,induced GFP-ALOX5 translocation
"COc1cccc2c1C(=O)c1c(O)c3c(c(O)c1C2=O)C[C@@](O)(C(=O)CO)C[C@@H]3O[C@H]1C[C@H](N)[C@H](O)[C@H](C)O1 [doxorubicin, reference compound]",overt toxicity (body weight),[6],No overt toxicity was observed
same,increase in expression of CDKN1A relative to IKE-treated or vehicle-treated mice,"[6]; qPCR, xenograft",5 fold
C[C@H](CCC(=O)O)C[C@H](C)C[C@H](C)C(=O)/C=C(\O)[C@H](C)C[C@H](C)C/C=C/[C@@H](C)[C@@H](O)[C@@H](C)[C@@H](O)C[C@@H]1CC[C@@](C)([C@H]2CC[C@@](C)([C@@H](C)O)O2)O1 [ionomycin],translocation of GFP-ALOX5 to the nuclear membrane,GFP-ALOX5,induced localization of GFP-ALOX5 to the nuclear membrane in all BJ-derived cell lines
"CN[C@@H]1C[C@H]2O[C@@](C)([C@@H]1OC)n1c3ccccc3c3c4c(c5c6ccccc6n2c5c31)C(=O)NC4 [staurosporine, Staurosporine]",translocation of GFP-ALOX5 to the nuclear membrane,GFP-ALOX5,did not
Vitamin E [Vit. E],rescue of siGPX4-induced cell death,[3],rescued
lysophosphatidyl choline [lyso-PC],RSL phenotype (selective lethality in oncogenic-RAS cells),[2],did not show differential cytotoxicity
same,effect on erastin-induced cell death,[4],modestly sensitized cells to erastin-induced cell death
